Data as given in patent US7575910B2, “Method for producing L-fuculose and method for producing L-fucose” (priority 2004, dated 2009).
Where two headings read alike, the source gives them in different places.

Legend:
[1] = molecular target: NOX (NADH oxidase) (Gluconobacter thailandicus, UniProt A0ABQ0IUG6); assay: NOX activity: NADH/NADPH and flavin coenzyme specificity; format: biochemical, Gluconobacter oxydans IFO 3255; conditions: for NOX activation effect of flavin coenzyme: flavin 0 to 300 μM, FIG. 19
Description: (§1) The change in absorbance in the first minute was taken as an initial rate, and the activity was calculated therefrom. The experimental group without the enzyme source was used as a blank. […] The measurement was taken three consecutive times. Their mean value was taken and is shown in the figure with the standard deviation.
The concentration of flavin in the reaction solution was 0 to 300 μM, and the others were adjusted to standard conditions.
The Km value for the substrate was calculated by measuring the activity with a variety of substrate concentrations and drawing a Lineweaver-Burk plot of the results.

[2] = molecular target: FcDH (Gluconobacter thailandicus, UniProt A0ABQ0IZX0); assay: Bivalent metal ion specificity of FcDH; format: biochemical, Gluconobacter oxydans IFO 3255
[3] = molecular target: T1, FcDH (L-fuculose-producing L-fucitol dehydrogenase) (Gluconobacter thailandicus, UniProt A0ABQ0IZX0); assay: Substrate specificity of purified FcDH (kcat, Km by Lineweaver-Burk plot); format: biochemical, Gluconobacter oxydans IFO 3255
T1 sequence (A0ABQ0IZX0 1-257): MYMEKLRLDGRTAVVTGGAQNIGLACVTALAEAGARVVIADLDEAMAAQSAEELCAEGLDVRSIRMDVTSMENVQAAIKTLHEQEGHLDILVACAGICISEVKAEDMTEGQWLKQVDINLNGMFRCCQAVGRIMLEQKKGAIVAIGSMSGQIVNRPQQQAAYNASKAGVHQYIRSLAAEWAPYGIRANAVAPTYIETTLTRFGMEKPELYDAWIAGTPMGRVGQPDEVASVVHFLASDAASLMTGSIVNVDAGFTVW
Description: The measurement was started when NAD was added. […] The measurement was performed consecutively three times.
Values of kcat and Km for each substrate were obtained by measuring the initial rate of the reaction with various substrate concentrations and drawing a Lineweaver-Burk plot of the results.
Lineweaver-Burk plots of the results in (A) and (B) are shown in FIG. 12 (C) and (D), respectively. The Km and kcat values were calculated from the range in which substrate inhibition was not observed, i.e., from a straight line represented by a broken line in FIG. 12 (C) and (D).

[4] = system: L-fucitol dehydrogenase in cell free extract of G. oxydans IFO 3255 sldA:Kmr mutant strain; assay: NAD(P)-dependent L-fucitol oxidation activity in cell free extract; format: biochemical, Gluconobacter oxydans IFO 3255 sldA:Kmr
Description: Subsequently, 1 ml of the medium was added to 50 ml of the same liquid medium, and cultured at 30° C. for 18 hours using a 500 ml Sakaguchi flask. The microbial cells were collected by centrifuging this medium, washed with 9 g/l of NaCl, and sonicated with 200 W for 10 minutes to yield the disrupted microbial cells. These cells were further centrifuged at 15,000 g for 15 minutes to yield the supernatant, which was then used as a cell-free extract. […] The experiment was also performed without L-fucitol as the control.

[5] = Description: The measurement was started when NAD was added. The change in absorbance in the first minute was taken as the initial rate, and the activity was calculated therefrom. […] The measurement was performed consecutively three times. Their mean value was taken and is shown in the figure with the standard deviation.
As pH buffers, sodium acetate buffer (pH 4.8, 5.7), potassium phosphate buffer (pH 6.4, 7.2), Tris-HCl buffer (pH 6.7, 7.6, 8.5), CAPS-NaOH buffer (Sodium cyclohexylaminopropanesulfonate) (pH 8.3, 9.5) and sodium carbonate buffer (pH 10.1, 10.7, 11.2) were used.
A solution containing 0.1M pH buffer and 80 μg/ml purified FcDH was left to stand on ice for 30 minutes, and subsequently the solution was diluted to a final FcDH concentration of 1.6 μg/ml. The reaction was performed under standard conditions, and the remaining FcDH activity was measured.
A solution containing Gly-NaOH (pH 9.5), MgCl2, fucitol, and purified FcDH was preincubated at each temperature (25, 30, 37, 45, 55, or 65° C.) for 3 minutes, and then NAD that had been separately preincubated at each temperature was added thereto to start the reaction. The final concentrations in the reaction solution were adjusted to the standard conditions for activity measurement, and the final concentration of FcDH was 1.6 μg/ml.
A solution containing Gly-NaOH (pH 9.5) and 80 μg/ml purified FcDH was left to stand at 0, 25, 30, 37, 50 or 60° C. for 30 minutes. The solution was then diluted so that the final concentration of FcDH was 1.6 μg/ml. The reaction was performed under standard conditions, and the remaining FcDH activity was measured. The remaining activity of FcDH measured at each temperature is reported (FIG. 11) as the relative percentage as compared to the remaining activity when left to stand at 0° C.
(§2) The activity of the purified preparations of rFcDH and rNOX that had been purified as described above was also measured.

[6] = remark: listed apart in the source
Description: as §1
As pH buffers, sodium citrate buffer (pH 3.6, 4.7, 5.7), sodium acetate buffer (pH 4.8, 5.7), potassium phosphate buffer (pH 6.4, 7.2), Tris-HCl buffer (pH 6.7, 7.6, 8.5), and CAPS-NaOH buffer (pH 8.3, 9.5) were used.
as §2

[7] = 5 mM bivalent metal ion or EDTA
[8] = 5 mM bivalent metal ion or EDTA, relative to specific activity with MnCl2
[9] = substrate, Lineweaver-Burk plot

With `NC(=O)C1=CN([C@@H]2O[C@H](COP(=O)(O)OP(=O)(O)OC[C@H]3O[C@@H](n4cnc5c(N)ncnc54)[C@H](OP(=O)(O)O)[C@@H]3O)[C@@H](O)[C@H]2O)C=CC1` [NADPH] the “NOX activity with NADPH as the substrate” value ([1]; data not shown) was “no significant activity”.

For `[Cl][Ni][Cl]` [NiCl2], the “effect on FcDH activity” value [2, 7] was “no effect” and the “RELATIVE ACTIVITY (%)” value [2, 8] was 42.4 ± 0.7%.

With `O=S(=O)([O-])[O-].[Zn+2]` [ZnSO4] the “effect on FcDH activity” value [2, 7] was “inhibitory effect” and the “RELATIVE ACTIVITY (%)” value [2, 8] was 11.7 ± 0.5%.

With `Cc1cc2nc3c(=O)[nH]c(=O)nc-3n(C[C@H](O)[C@H](O)[C@H](O)COP(=O)(O)O)c2cc1C` [FMN] the “NOX activation effect of flavin coenzyme” value [1] was “relatively weaker”.

For `[Cl-].[Cl-].[Mg+2]` [MgCl2], the “effect on FcDH activity” value [2, 7] was “activation effect” and the “RELATIVE ACTIVITY (%)” value [2, 8] was 93.7 ± 2.9%.

With `[Ca+2].[Cl-].[Cl-]` [CaCl2] the “effect on FcDH activity” value [2, 7] was “activation effect” and the “RELATIVE ACTIVITY (%)” value [2, 8] was 89.9 ± 3.4%.

In the case of `[Cl][Mn][Cl]` [MnCl2], the “effect on FcDH activity” value [2, 7] is reported as “activation effect” and the “RELATIVE ACTIVITY (%)” value [2, 8] is reported as 100.0 ± 6.9%.

In the case of `[Cl][Cu][Cl]` [CuCl2], the “effect on FcDH activity” value [2, 7] is reported as “inhibitory effect” and the “RELATIVE ACTIVITY (%)” value [2, 8] is reported as 5.0 ± 0.5%.

For `[Cl-].[Cl-].[Co+2]` [CoCl2], the “RELATIVE ACTIVITY (%)” value [2] was 34.8 ± 1.1% and the “effect on FcDH activity” value [2] was “no effect”.

With `OCC(O)CO` [GLYCEROL, glycerol] the Kcat [3, 9] was 0.9 U · mg−1 and the Km [3, 9] was 10.1 mM.

In the case of `C[C@H](O)[C@@H](O)[C@@H](O)[C@H](O)CO` [L-FUCITOL, L-fucitol], the “substrate concentration at which a reduction of the specific activity (inhibition by the substrate) was observed” value ([3]; FIG. 12) is reported as no less than 100 mM, the Dehydrogenase activity ([4]; coenzyme NAD, pH 6.0) is reported as 3.1 ×10^−3 U/mg and the Dehydrogenase activity ([4]; coenzyme NAD, pH 8.8) is reported as 18.4 ×10^−3 U/mg. The Dehydrogenase activity ([4]; coenzyme NADP, pH 6.0) was 0.0 ×10^−3 U/mg and the Dehydrogenase activity ([4]; coenzyme NADP, pH 8.8) was 1.9 ×10^−3 U/mg.

With `Cc1cc2nc3c(=O)[nH]c(=O)nc-3n(C[C@H](O)[C@H](O)[C@H](O)CO)c2cc1C` [riboflavin] the “NOX activation effect of flavin coenzyme” value [1] was “NOX activation effect was observed”.

B1: FcDH: L-fuculose-producing L-fucitol dehydrogenase purified from G. oxydans IFO 3255, SEQ ID NO:16 (protein)
chain: T1 sequence (A0ABQ0IZX0 1-257)
modifications: Gluconobacter oxydans
In the case of B1, the “remaining activity (temperature stability)” value ([5]; 0.5 h) is reported as no less than 80%, the “pH of maximum specific activity” value ([5]; FIG. 8, 30° C.) is reported as 9.5 and the “temperature of maximum specific activity” value ([5]; FIG. 10, pH 9.5) is reported as 37 °C. The “remaining activity (pH stability)” value ([5]; buffer, 0.5 h, pH 7.2) was no less than 80% and the “specific activity of FcDH” value ([5]; purified preparation, 10 mM L-fucitol, 1 mM NAD, pH 9.5, 30° C.) was 7.8 U/mg.

B2: NOX: NADH oxidase purified from G. oxydans IFO 3255, SEQ ID NO:18 (protein)
chain: MTILNEQDFRRAMSHFATGVAVVTAKGSEGEQGATISALTSVSLDPLLLLICLHRGSSTYKAIAEAGRFGLSILNNSHKDVAMLFASRTADKFGSDVVVRAEDGTAFIDGALVQMHCELVETFQGGTHALFMARPTSITVRDEAPLLYFQGQLGVEA
modifications: Gluconobacter oxydans
In the case of B2, the “remaining activity (temperature stability)” value ([6]; 0.5 h) is reported as no less than 80%, the “pH of maximum specific activity” value ([6]; FIG. 15, 30° C.) is reported as 5.7 and the “temperature of maximum specific activity” value ([6]; FIG. 17, pH 8.0) is reported as 37 °C. The “remaining activity (pH stability)” value ([6]; buffer, 0.5 h, pH 8.8) was no less than 80% and the “specific activity of NOX” value ([6]; purified preparation, 0.2 mM NADH, 30 μM FAD, pH 8.0, 30° C.) was 196 U/mg.
